One may read the MIC50 as an inhibitory concentration at the 50% level, which refers to growth in some studies and to a panel of isolates in others. In general, MIC90 refers to the lowest concentration that inhibits either 90% of growth or 90% of the strains tested, depending on the study. Broadly, the MIC is the lowest concentration found to suppress growth. The low end stands for inhibition by little substance, the high end for a need for much substance.

Holding throughout (type): functional
The test system of assay [1] is Klebsiella pneumoniae. Nature of the assay: Antibacterial activity against plasmid-mediated AmpC beta-Lactamase DHA-1 and ESBL-producing Klebsiella pneumoniae by Etest.
Assay [2] has as its system Klebsiella pneumoniae. Nature of the assay: Antibacterial activity against ESBL-producing Klebsiella pneumoniae by Etest.
The subject of assay [3] is Klebsiella pneumoniae. Nature of the assay: Antibacterial activity against ESBL-producing Klebsiella pneumoniae by Etest in presence of Tazobactam.
The subject of assay [4] is Klebsiella pneumoniae. Kind of assay: Antibacterial activity against plasmid-mediated AmpC beta-Lactamase DHA-1 and ESBL-producing Klebsiella pneumoniae by Etest in presence of Tazobactam.

In brackets after ≈: the same amount, converted by molar mass.

`C[C@@H](O)[C@H]1C(=O)N2C(C(=O)O)=C(SCCNC=N)C[C@H]12` [IMIPENEM ANHYDROUS]: the MIC50 came out at 0.5 µg/mL (≈ 1.67 µM) in the assay with Klebsiella pneumoniae [1] and 0.25 µg/mL (≈ 0.835 µM) with Klebsiella pneumoniae [2]. Also, the figures for the MIC90 in the assay on Klebsiella pneumoniae [1] and against Klebsiella pneumoniae [2] were 2 µg/mL (≈ 6.68 µM) and 0.5 µg/mL (≈ 1.67 µM), respectively.

In the assay with Klebsiella pneumoniae [1], `NCC[C@H](O)C(=O)N[C@@H]1C[C@H](N)[C@@H](O[C@H]2O[C@H](CN)[C@@H](O)[C@H](O)[C@H]2O)[C@H](O)[C@H]1O[C@H]1O[C@H](CO)[C@@H](O)[C@H](N)[C@H]1O` [AMIKACIN] came in with an MIC50 of over 256 µg/mL and an MIC90 of over 256 µg/mL. In the assay on Klebsiella pneumoniae [2], this molecule gave an MIC50 of 4 µg/mL (≈ 6.83 µM) and an MIC90 of 32 µg/mL (≈ 54.6 µM).

In the case of `C[C@@H](O)[C@H]1C(=O)N2C(C(=O)O)=C(S[C@@H]3CN[C@H](C(=O)N(C)C)C3)[C@H](C)[C@H]12` [MEROPENEM], in the assay on Klebsiella pneumoniae [1], the MIC50 stood at 0.12 µg/mL (≈ 0.313 µM) and the MIC90 was 0.5 µg/mL (≈ 1.3 µM). Further, in the assay with Klebsiella pneumoniae [2], the MIC50 worked out at 0.03 µg/mL (≈ 0.0782 µM) and the MIC90 turned out to be 0.06 µg/mL (≈ 0.156 µM).

In the assay with Klebsiella pneumoniae [1], `O=C(O)c1cn(C2CC2)c2cc(N3CCNCC3)c(F)cc2c1=O` [CIPROFLOXACIN] came in with an MIC50 of over 32 µg/mL and an MIC90 of over 32 µg/mL. Besides, in the assay with Klebsiella pneumoniae [2], the MIC50 is 0.125 µg/mL (≈ 0.377 µM) and the MIC90 stood at 8 µg/mL (≈ 24.1 µM).

As for `CCN1CCN(C(=O)N[C@@H](C(=O)N[C@@H]2C(=O)N3[C@@H]2SC(C)(C)[C@@H]3C(=O)O)c2ccccc2)C(=O)C1=O` [PIPERACILLIN], the MIC50 with Klebsiella pneumoniae [3] and with Klebsiella pneumoniae [4] was 8 µg/mL each time. In addition, the MIC90 in the assay with Klebsiella pneumoniae [3] amounted to 32 µg/mL; in the assay on Klebsiella pneumoniae [4], 64 µg/mL.

In the assay on Klebsiella pneumoniae [1], `C[C@@H](O)[C@H]1C(=O)N2C(C(=O)O)=C(S[C@@H]3CN[C@H](C(=O)Nc4cccc(C(=O)O)c4)C3)[C@H](C)[C@H]12` [ERTAPENEM] returned an MIC of 0.5 µg/mL (≈ 1.05 µM), an MIC50 of 0.5 µg/mL (≈ 1.05 µM) and an MIC90 of 2 µg/mL (≈ 4.21 µM). Besides, in the assay on Klebsiella pneumoniae [2], 0.015 µg/mL (≈ 0.0315 µM) was the least that counted as inhibitory (MIC), the MIC50 is 0.015 µg/mL (≈ 0.0315 µM) and the MIC90 is 0.5 µg/mL (≈ 1.05 µM).
